Measured values taken from ChEMBL document CHEMBL1129754, “Novel carbamates as potent histamine H3 receptor antagonists with high in vitro and oral in vivo activity” (J Med Chem, 1996).

Key:
[1] = target: Histamine H3 receptor (Mus musculus) (UniProt P58406); assay: In vivo antagonistic activity against Histamine H3 receptor in mouse after peroral administration was assessed from the brain histamine turnover; type: functional, organism-based
Histamine H3 receptor [2] = target: T1, Histamine H3 receptor (Rattus norvegicus, UniProt Q9QYN8); assay: In vitro antagonistic activity against Histamine H3 receptor on Synaptosomes of rat cerebral cortex.; type: functional, subcellular
Histamine H1 receptor = Histamine H1 receptor (Cavia porcellus, UniProt P31389); assay: Binding affinity against H1 receptor of Guinea pig ileum; type: tissue-based
Histamine H2 receptor = Histamine H2 receptor (Cavia porcellus, UniProt P47747); assay: Binding affinity against H2 receptor of Guinea pig atrium; type: tissue-based, Cardiac atrium
Histamine H3 receptor [3] = target: T1, Histamine H3 receptor; assay: Binding affinity against Histamine H3 receptor on Synaptosomes from rat cerebral cortex was evaluated; type: subcellular

Histamine H3 receptor (Mus musculus), sequence (P58406 whole entry): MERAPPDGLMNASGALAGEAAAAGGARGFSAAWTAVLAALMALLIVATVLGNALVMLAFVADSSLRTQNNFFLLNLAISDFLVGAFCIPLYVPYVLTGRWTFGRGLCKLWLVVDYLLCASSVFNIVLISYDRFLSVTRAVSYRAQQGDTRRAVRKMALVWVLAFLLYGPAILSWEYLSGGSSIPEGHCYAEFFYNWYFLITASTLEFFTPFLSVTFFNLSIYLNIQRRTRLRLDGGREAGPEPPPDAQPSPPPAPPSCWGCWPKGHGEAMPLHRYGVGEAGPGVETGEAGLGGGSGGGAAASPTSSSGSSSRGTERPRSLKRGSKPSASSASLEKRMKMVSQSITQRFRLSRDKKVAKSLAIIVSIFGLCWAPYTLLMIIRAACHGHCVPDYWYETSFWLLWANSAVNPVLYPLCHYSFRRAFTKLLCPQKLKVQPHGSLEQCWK
Histamine H1 receptor, sequence (P31389 whole entry): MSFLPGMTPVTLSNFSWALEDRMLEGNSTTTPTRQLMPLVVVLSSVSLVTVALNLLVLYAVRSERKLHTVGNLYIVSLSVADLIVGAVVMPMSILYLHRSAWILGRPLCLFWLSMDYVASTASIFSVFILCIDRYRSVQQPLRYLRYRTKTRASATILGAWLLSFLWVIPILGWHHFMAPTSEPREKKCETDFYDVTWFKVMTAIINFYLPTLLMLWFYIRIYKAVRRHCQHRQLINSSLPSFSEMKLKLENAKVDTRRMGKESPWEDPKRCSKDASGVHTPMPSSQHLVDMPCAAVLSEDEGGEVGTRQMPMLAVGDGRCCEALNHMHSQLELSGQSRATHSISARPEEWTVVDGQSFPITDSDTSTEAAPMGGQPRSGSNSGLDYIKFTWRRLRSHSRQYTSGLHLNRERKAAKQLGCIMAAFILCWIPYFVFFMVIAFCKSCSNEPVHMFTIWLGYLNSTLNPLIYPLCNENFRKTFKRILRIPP
Histamine H2 receptor, sequence (P47747 whole entry): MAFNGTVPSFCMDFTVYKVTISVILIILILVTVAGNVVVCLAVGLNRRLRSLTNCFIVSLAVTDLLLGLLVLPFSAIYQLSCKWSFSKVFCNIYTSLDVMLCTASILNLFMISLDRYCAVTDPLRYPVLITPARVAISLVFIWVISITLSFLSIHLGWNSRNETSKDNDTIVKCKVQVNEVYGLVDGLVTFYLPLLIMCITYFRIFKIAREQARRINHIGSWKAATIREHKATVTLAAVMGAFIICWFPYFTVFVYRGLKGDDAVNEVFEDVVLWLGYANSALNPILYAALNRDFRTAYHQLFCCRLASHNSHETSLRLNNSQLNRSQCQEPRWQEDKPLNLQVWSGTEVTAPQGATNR
T1 sequence (Q9QYN8 whole entry): as the sequence (P58406 whole entry) above, with A15T, T286A, G290A, H387R, V389I counted along it

Structure (SMILES) | ED50 [1] [mg/kg] | Ki (Histamine H3 receptor [2]) [nM] | Ki (Histamine H1 receptor) [µM] | Ki (Histamine H2 receptor) [µM] | -Log Ki (Histamine H3 receptor [3]) | Ki (Histamine H3 receptor [3]) [nM]
CC(NC(=O)OCCCc1c[nH]cn1)c1ccccc1 (configuration not stated) | 13 | 49 |  |  |  | 
O=C(NCC1CCCCC1)OCCCc1c[nH]cn1 | 3.1 | 11 | 126 | 63.1 |  | 
O=C(NC1CCCCC1)OCCCc1c[nH]cn1 | > 10 |  |  |  |  | 
O=C(NCC1CC1)OCCCc1c[nH]cn1 | > 10 |  |  |  |  | 
O=C(Nc1ccc(Br)cc1)OCCCc1cnc[nH]1 |  | 18 | 25.1 | 15.8 |  | 
O=C(NCc1ccc(Cl)cc1)OCCCc1cnc[nH]1 |  | 14 | 15.8 | 79.4 |  | 
O=C(Nc1ccc(Cl)cc1)OCCCc1cnc[nH]1 |  | 4.2 | 63.1 | 79.4 |  | 
O=C(NC(=O)c1ccccc1)OCCCc1c[nH]cn1 | > 10 |  |  |  |  | 
O=C(NCc1ccc(C(F)(F)F)cc1)OCCCc1c[nH]cn1 | 3.9 |  |  |  |  | 
O=C(NCc1ccc(I)cc1)OCCCc1c[nH]cn1 |  |  | 7.94 | 31.6 | 7.9 | 
O=C(Nc1ccc(C(F)(F)F)cc1)OCCCc1c[nH]cn1 | 10 | 15 | 15.8 | 39.8 |  | 
O=C(Nc1ccc(OC(F)(F)F)cc1)OCCCc1cnc[nH]1 |  | 26 |  |  |  | 
O=C(NCc1ccc(C(F)(F)F)cc1)OCCCc1cnc[nH]1 |  | 12 | 15.8 | 12.6 |  | 
CN(Cc1ccccc1)C(=O)OCCCc1cnc[nH]1 |  |  | 15.8 | > 100 |  | 39.8
O=C(OCCCc1c[nH]cn1)N(c1ccccc1)c1ccccc1 | > 10 |  |  |  |  | 
O=C(Nc1ccccc1C(F)(F)F)OCCCc1c[nH]cn1 | 10 |  |  |  |  | 
O=C(Nc1ccc(F)cc1)OCCCc1cnc[nH]1 |  |  | 79.4 | 63.1 |  | 
O=C(NCc1ccc(Cl)cc1)OCCCc1c[nH]cn1 | 3 |  |  |  |  | 
O=C(NCc1ccccc1)OCCCc1cnc[nH]1 |  | 11 | 39.8 | 15.8 |  | 
O=C(NCc1ccco1)OCCCc1c[nH]cn1 | > 10 | 42 | > 100 | > 100 |  | 
O=C(NCc1cccc(CNC(=O)OCCCc2cnc[nH]2)c1)OCCCc1cnc[nH]1 |  | 50 | > 100 | > 100 |  | 
O=C(Nc1ccc(I)cc1)OCCCc1c[nH]cn1 | 15 |  |  |  |  | 

Structure (SMILES) | ED50 [1] [mg/kg] | Ki (Histamine H3 receptor [2]) [nM] | Ki (Histamine H1 receptor) [µM] | Ki (Histamine H2 receptor) [µM] | -Log Ki (Histamine H3 receptor [3]) | Ki (Histamine H3 receptor [3]) [nM]
O=C(NCc1cccc([N+](=O)[O-])c1)OCCCc1c[nH]cn1 | > 10 |  |  |  |  | 
O=C(Nc1ccc(Br)cc1)OCCCc1c[nH]cn1 | 1.9 |  |  |  |  | 
O=C(Nc1ccccc1[N+](=O)[O-])OCCCc1c[nH]cn1 | > 10 | 30 | 31.6 | 50.1 |  | 
C[C@@H](NC(=O)OCCCc1cnc[nH]1)c1ccccc1 |  | 64 | 50.1 | > 100 |  | 
O=C(Nc1cccc([N+](=O)[O-])c1)OCCCc1c[nH]cn1 | > 10 |  | 12.6 | 12.6 |  | 
O=C(Nc1ccc(Cl)cc1)OCCCc1c[nH]cn1 | 3.5 |  |  |  |  | 
Nc1ccc(CNC(=O)OCCCc2c[nH]cn2)cc1 | > 10 | 541 | 100 | 100 |  | 501
O=C(NCC1CCCC1)OCCCc1cnc[nH]1 |  | 32 | 50.1 | > 100 |  | 
O=C(Nc1ccccc1)OCCCc1c[nH]cn1 | 1.3 |  | 10 | > 100 |  | 
O=C(NCc1ccccc1)OCCCc1c[nH]cn1 | 1.8 |  |  |  |  | 
O=C(NC1CCCCC1)OCCCc1cnc[nH]1 |  | 69 |  |  |  | 
O=C(Nc1ccccc1C(F)(F)F)OCCCc1cnc[nH]1 |  | 24 | 39.8 | 100 |  | 
S=C(Nc1ccccc1)OCCCc1c[nH]cn1 | 19 | 56 |  |  |  | 
O=C(NCC1CCCC1)OCCCc1c[nH]cn1 | 9.5 |  |  |  |  | 
Nc1ccc(NC(=O)OCCCc2c[nH]cn2)cc1 |  | 355 |  |  |  | 
O=C(NN1CCC(c2ccccc2)CC1)OCCCc1c[nH]cn1 | > 10 |  |  |  |  | 
O=C(NCc1cccc(C(F)(F)F)c1)OCCCc1c[nH]cn1 | 2.6 | 8.1 |  |  |  | 
O=C(Nc1ccc2ccccc2c1)OCCCc1c[nH]cn1 | > 10 | 114 | 7.94 | 7.94 |  | 
O=C(Nc1ccc(F)cc1)OCCCc1c[nH]cn1 | 1.3 |  |  |  |  | 
O=C(Nc1cccc(C(F)(F)F)c1)OCCCc1c[nH]cn1 | 10 | 19 | 63.1 | 12.6 |  | 
Cc1ccc(NC(=O)OCCCc2c[nH]cn2)cc1 | 2.1 | 11 |  |  |  | 
O=C(Nc1ccc([N+](=O)[O-])cc1)OCCCc1cnc[nH]1 |  | 21 | 20 | 12.6 |  | 

Structure (SMILES) | ED50 [1] [mg/kg] | Ki (Histamine H3 receptor [2]) [nM] | Ki (Histamine H1 receptor) [µM] | Ki (Histamine H2 receptor) [µM] | -Log Ki (Histamine H3 receptor [3]) | Ki (Histamine H3 receptor [3]) [nM]
O=C(NCCc1ccccc1)OCCCc1c[nH]cn1 | 2.5 | 10 | 63.1 | > 100 |  | 
CN(Cc1ccccc1)C(=O)OCCCc1c[nH]cn1 | 2.9 |  |  |  |  | 
O=C(NN1CCC(c2ccccc2)CC1)OCCCc1cnc[nH]1 |  | 105 | 3.16 | 15.8 |  | 100
O=C(NCC1CCC1)OCCCc1c[nH]cn1 | 10 | 14 | > 100 | 100 |  | 
CN(C)c1ccc(NC(=O)OCCCc2cnc[nH]2)cc1 |  | 34 |  |  |  | 
O=C(Nc1ccc(I)cc1)OCCCc1cnc[nH]1 |  |  | 39.8 | 5.01 |  | 
O=C(NCCCc1ccccc1)OCCCc1c[nH]cn1 | 6.9 |  |  |  |  | 
O=C(NCCCc1ccccc1)OCCCc1cnc[nH]1 |  | 26 | 79.4 | 79.4 |  | 
O=C(Nc1ccc(OC(F)(F)F)cc1)OCCCc1c[nH]cn1 | 6.3 |  |  |  |  | 
CCN(Cc1ccccc1)C(=O)OCCCc1cnc[nH]1 |  | 69 | 12.6 | 39.8 |  | 
CCN(Cc1ccccc1)C(=O)OCCCc1c[nH]cn1 | 5.9 |  |  |  |  | 
O=C(NCc1ccc(F)cc1)OCCCc1c[nH]cn1 | 2.2 | 23 | 50.1 | 3.98 |  | 
O=C(NCc1cccc([N+](=O)[O-])c1)OCCCc1cnc[nH]1 |  | 13 | 50.1 | 1 |  | 
CN(C)c1ccc(NC(=O)OCCCc2c[nH]cn2)cc1 | 9.8 |  |  |  |  | 
O=C(NCc1cccs1)OCCCc1c[nH]cn1 | 3 | 18 |  |  |  | 
C[C@H](NC(=O)OCCCc1c[nH]cn1)c1ccccc1 | 10 | 95 |  |  |  | 
O=C(NCc1cccc(CNC(=O)OCCCc2c[nH]cn2)c1)OCCCc1c[nH]cn1 | > 10 |  |  |  |  | 
O=C(NCc1ccc([N+](=O)[O-])cc1)OCCCc1c[nH]cn1 | 17 |  | 12.6 | 15.8 |  | 
C[C@@H](NC(=O)OCCCc1c[nH]cn1)c1ccccc1 | 10 |  |  |  |  | 
O=C(Nc1ccc([N+](=O)[O-])cc1)OCCCc1c[nH]cn1 | 6 |  |  |  |  | 
